Tested on: VM-M3 tumour
Test: VM-M3 orthotopic GBM model: bioluminescence imaging and survival
Assay type: in vivo, mouse (VM/Dk)
Procedure: FIGS. 1A-1F. Restricted Ketogenic diet with DON reduces progression and mortality of the VM-M3 GBM. VM/Dk inbred mice were implanted orthotopically with a small (1.0 mm×1.0 mm) tissue fragment from the VM-M3 tumour on day 0. The implanted mice were divided into two groups on day 4 and were fed either; a standard chow diet unrestricted or ad-libitum (SD-UR), or a ketogenic diet (KD-R) in restricted amounts to reduce body weight by about 15%. DON (0.1-1.0 mg/kg) was injected i.p. 7 days following orthotopic tumour implantation. […] 1A. All mice were imaged in-vivo and terminated on day 14 or 15 when all control mice appeared moribund (experiments 1 & 2). For experiment 1, bioluminescence was scored from 0-4, following the administration of lower doses of DON (0.1 and 0.5 mg/kg). Values are expressed as the mean+/−SEM and a one-way analysis of variance followed by Tukey's post hoc test was performed to determine the significance between groups, FIG. 1B. In experiment 2, in-vivo bioluminescent photon values were obtained following the administration of DON (1.0 mg/kg) in mice under the KD-R, FIG. 1C. The average in-vivo bioluminescent photon values were calculated for the KD-R (n=4) and KD-R+DON (n=8) mice in experiment 2. Values are presented as the mean+/−SEM and the P value was calculated using a two-tailed student's t-test, FIG. 1D. in-vivo bioluminescent images of 3 representative mice from both study groups in experiment 2 are shown, FIG. 1E. For experiment 3, a survival study was performed, and a Kaplan Meier survival plot was configured for SD-UR (n=15), SD-UR+DON (n=10), KD-R (n=10), and KD-R+DON (n=10), FIG. 1F.
FIGS. 2A-2C. Restricted Ketogenic diet with DON reduces VM-M3 GBM bioluminescence. VM/Dk mice were implanted with a VM-M3 tumour as described in the previous figures. Mouse brains were imaged ex-vivo on day 14 or 15. Mice were imaged ex-vivo after in-vivo bioluminescent imaging, as described in the previous figures. Individual ex-vivo bioluminescent photon values were measured following the administration of DON (1.0 mg/kg) in KD-R mice, FIG. 2A. From the individual measurements, the average ex-vivo bioluminescent photon value was calculated for both the KD-R (n=6) and KD-R+DON (n=8) mouse groups. Values are presented as the mean+/−SEM and significance of differences was determined following a two-tailed student's t-test, FIG. 2B. ex-vivo bioluminescent images of brains from representative mice in experiment 2 are shown in comparison to SD-UR, FIG. 2C.
To observe the effect of the KD-R and DON on the VM-M3 tumour model, three consecutive experiments were conducted. Experiment 1 included four groups (SD-UR; SD-UR+DON; KDR; KDR+DON) with lower DON dosages (0.1 and 0.5 mg/kg). Experiment 2 involved both in-vivo and ex-vivo imaging of two study groups (KD-R and KD-R+DON) following the administration of a higher dose of DON (1.0 mg/kg). Experiment 3, a survival study, also used the higher DON dose (1.0 mg/kg) and included the four groups from Experiment 1 (SD-UR; SD-UR+DON; KDR; KDR+DON) ( ).
The KD-R+DON treatment was performed as outlined in the study timeline (FIG. 1A). In experiment 1, two doses of DON (0.1 and 0.5 mg/kg) were used in both the SD-UR and KD-R groups (FIG. 1B). d-luciferin was injected i.p. 15 days after tumour implantation, and in-vivo bioluminescence imaging was performed. The total VM-M3 tumour bioluminescence photon values were scored from 0 to 4, with 0 being the baseline value and 4 being the highest value.
Experiment 2 involved a larger number of mice that were treated with a higher dose of DON (1.0 mg/kg). Due to the observed synergy between the KD-R and DON in experiment 1, only the KD-R group was selected for further experiments. All mice in this experiment expressed a significant amount of tumour burden as observed by in-vivo imaging on day 7 (data not shown). […] All untreated SD-UR control mice died between day 15 and 18. […]

## [N-]=[N+]=CC(=O)CC[C@H](N)C(=O)O [DON, 6-diazo-5-oxo-L-norleucine]
DON 0.5 mg/kg once or twice per week, bioluminescent imaging
  reduction in tumour growth: 60 to 70%
DON 1.0 mg/kg, same schedule, bioluminescent imaging
  resolution of the brain tumour: near complete resolution
Experiment 1, DON 0.1 and 0.5 mg/kg, in-vivo bioluminescence day 15
  lower photon value compared to control SD-UR group: 44%
Experiment 2, DON 1.0 mg/kg, FIG. 2B
  average ex-vivo photon value: significant reduction
Experiment 2, KD-R fed mice, DON 1.0 mg/kg, day 14 or 15
  mice with baseline value of in-vivo bioluminescence: 7 out of the 8
Experiment 2, KD-R fed mice, DON 1.0 mg/kg, resected brains
  individual ex-vivo bioluminescent values: below the baseline value
Experiment 2, KD-R fed mice, DON 1.0 mg/kg, versus KD-R
  average in-vivo photon value: significant reduction
